From patent US10689378B2, “Triazolopyridine compounds and uses thereof” (Novartis AG, priority 2016, dated 2020)
Like-named read-outs stand apart in the source and are kept apart here.

How the values were obtained:
EED (1-441)-His protein = molecular target: T1, EED (1-441)-His protein (Homo sapiens, UniProt O75530); test: EED-H3K27Me3 peptide competition binding assay by AlphaScreen
T1 construct: 30 nM EED (1-441)-His protein
Procedure, shortened: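 Serially diluted compound (12 points, 3-fold) incubated 20 min with 30 nM EED(1-441)-His and 15 nM biotin-H3K27Me3(19-33) peptide in 25 mM HEPES pH 8, 0.02% Tween-20, 0.5% BSA. Ni-chelate acceptor/streptavidin donor beads (10 μg/mL each) added, 1 h rt dark; 615 nm emission normalized to controls, dose-response fit for IC50.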

[1] = molecular target: wild type PRC2 (wtPRC2) complex (Homo sapiens, UniProt O75530); test: EED LC-MS assay (SAH production by PRC2); assay type: biochemical
Procedure, shortened: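 LC-MS/MS readout of SAH (d4-SAH standard) after TFA quench gives PRC2 activity, normalized to controls and fitted to dose-response for IC50. Reaction: 12 nM EZH2/SUZ12/EED/Rbap48/AEBP complex, 1 μM SAM, 1.5 μM H3[21-44] peptide, 120 min rt, 20 min compound preincubation.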

[2] = system: H3K27 methylation in G401 cell; test: ELISA (H3K27 methylation) assay in G401 cells; assay type: cell-based, human; details: Homo sapiens
Procedure, shortened: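 IC50 from dose-response fit of percent inhibition relative to DMSO, using H3K27me3/me2 ELISA signal (ECL) normalized to histone H3. Histones HCl-extracted after 48 h compound exposure of G401 cells at up to 20 μM, 8- or 12-point 3-fold series.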

[3] = read-out: (a) IC50, EED Alphascreen binding Qualified
[4] = read-out: (b) IC50, EED LC-MS Qualified
[5] = G-401, read-out: (c) IC50, ELISA Qualified
[6] = EED-H3K27Me3 peptide competition, AlphaScreen, read-out: (a) IC50 EED Alphascreen binding Qualified
[7] = PRC2 LC-MS assay, read-out: (b) IC50 EED LC-MS Qualified
[8] = G-401, H3K27 methylation ELISA, read-out: (c) IC50 ELISA Qualified

T1 sequence (O75530 whole entry): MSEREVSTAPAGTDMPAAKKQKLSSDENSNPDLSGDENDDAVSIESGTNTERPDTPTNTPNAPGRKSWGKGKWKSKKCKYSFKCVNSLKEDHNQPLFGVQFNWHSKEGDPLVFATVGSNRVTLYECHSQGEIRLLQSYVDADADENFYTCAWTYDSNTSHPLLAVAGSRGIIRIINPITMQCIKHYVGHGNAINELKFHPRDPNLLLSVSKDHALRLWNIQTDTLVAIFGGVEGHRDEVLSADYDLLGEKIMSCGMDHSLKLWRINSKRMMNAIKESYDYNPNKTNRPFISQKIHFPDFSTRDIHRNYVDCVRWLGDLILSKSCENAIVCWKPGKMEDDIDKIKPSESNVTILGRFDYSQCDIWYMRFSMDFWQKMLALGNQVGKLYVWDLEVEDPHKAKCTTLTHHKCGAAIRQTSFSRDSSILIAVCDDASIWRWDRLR
wild type PRC2 (wtPRC2) complex, sequence (O75530 whole entry): as above
wild type PRC2 (wtPRC2) complex, sequence (Q15910 whole entry partner): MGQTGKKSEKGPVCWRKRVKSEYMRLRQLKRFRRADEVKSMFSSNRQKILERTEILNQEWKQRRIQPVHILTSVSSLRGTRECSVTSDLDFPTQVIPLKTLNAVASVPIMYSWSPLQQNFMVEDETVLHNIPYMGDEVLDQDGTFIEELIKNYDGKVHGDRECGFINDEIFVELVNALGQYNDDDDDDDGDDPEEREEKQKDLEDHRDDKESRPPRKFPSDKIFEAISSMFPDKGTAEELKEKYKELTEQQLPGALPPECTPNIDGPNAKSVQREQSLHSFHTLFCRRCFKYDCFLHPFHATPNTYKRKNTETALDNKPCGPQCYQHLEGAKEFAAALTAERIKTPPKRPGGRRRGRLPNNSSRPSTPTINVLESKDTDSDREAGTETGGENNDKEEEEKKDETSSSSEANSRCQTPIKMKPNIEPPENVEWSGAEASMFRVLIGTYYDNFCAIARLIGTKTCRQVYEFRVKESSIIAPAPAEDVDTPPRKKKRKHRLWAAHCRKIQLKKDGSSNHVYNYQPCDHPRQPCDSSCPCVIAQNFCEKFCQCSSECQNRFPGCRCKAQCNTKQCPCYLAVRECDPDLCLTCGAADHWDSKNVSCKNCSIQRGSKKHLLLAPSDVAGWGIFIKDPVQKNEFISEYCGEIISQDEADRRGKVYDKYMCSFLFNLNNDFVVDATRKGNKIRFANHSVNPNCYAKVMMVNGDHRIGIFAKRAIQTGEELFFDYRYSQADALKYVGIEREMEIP
wild type PRC2 (wtPRC2) complex, sequence (Q15022 whole entry partner): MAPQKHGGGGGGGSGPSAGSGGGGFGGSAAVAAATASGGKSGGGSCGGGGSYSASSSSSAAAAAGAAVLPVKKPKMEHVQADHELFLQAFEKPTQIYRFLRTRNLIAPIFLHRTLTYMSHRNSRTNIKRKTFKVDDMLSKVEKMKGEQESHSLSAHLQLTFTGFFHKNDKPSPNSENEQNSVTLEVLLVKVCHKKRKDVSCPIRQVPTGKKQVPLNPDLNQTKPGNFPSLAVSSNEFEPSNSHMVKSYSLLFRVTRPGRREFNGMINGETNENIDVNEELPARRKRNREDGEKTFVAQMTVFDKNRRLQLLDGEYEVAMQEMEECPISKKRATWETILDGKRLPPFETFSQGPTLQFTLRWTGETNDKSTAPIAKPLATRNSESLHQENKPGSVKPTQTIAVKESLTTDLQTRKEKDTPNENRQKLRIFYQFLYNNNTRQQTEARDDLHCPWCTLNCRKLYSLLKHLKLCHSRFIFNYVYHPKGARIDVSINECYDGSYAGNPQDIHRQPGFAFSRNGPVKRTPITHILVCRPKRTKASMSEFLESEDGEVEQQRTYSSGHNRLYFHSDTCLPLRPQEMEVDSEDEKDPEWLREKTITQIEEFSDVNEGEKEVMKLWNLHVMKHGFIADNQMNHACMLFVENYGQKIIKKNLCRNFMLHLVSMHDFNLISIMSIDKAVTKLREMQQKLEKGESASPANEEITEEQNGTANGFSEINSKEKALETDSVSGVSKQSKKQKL
wild type PRC2 (wtPRC2) complex, sequence (Q09028 whole entry partner): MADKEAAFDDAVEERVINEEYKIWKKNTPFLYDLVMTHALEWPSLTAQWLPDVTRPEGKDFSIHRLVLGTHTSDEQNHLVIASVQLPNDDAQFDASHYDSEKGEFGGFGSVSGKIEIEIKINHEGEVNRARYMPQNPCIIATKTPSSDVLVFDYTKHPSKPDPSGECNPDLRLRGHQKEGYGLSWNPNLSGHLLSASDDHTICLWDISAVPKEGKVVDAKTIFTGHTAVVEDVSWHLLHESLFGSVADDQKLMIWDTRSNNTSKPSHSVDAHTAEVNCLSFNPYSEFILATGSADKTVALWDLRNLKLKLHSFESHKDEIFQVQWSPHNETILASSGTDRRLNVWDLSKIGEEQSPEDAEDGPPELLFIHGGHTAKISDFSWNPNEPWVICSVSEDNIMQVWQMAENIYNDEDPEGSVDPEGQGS
wild type PRC2 (wtPRC2) complex, sequence (Q6ZN18 whole entry partner): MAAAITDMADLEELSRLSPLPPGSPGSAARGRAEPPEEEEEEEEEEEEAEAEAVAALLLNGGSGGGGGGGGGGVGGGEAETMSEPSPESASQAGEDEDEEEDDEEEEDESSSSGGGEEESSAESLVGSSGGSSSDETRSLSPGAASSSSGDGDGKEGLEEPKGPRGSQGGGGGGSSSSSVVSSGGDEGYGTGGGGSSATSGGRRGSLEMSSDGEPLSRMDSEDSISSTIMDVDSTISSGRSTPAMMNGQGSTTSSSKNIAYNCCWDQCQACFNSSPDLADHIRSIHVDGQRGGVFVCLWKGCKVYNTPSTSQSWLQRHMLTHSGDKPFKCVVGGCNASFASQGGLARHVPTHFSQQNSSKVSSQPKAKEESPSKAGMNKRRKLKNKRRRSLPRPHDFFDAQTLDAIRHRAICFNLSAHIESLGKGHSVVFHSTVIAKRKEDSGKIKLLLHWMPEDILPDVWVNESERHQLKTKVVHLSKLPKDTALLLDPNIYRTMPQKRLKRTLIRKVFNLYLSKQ

SMILES | IC50 (EED (1-441)-His protein; [3]) [nM] | IC50 [1, 4] [nM] | IC50 [2, 5] [nM] | IC50 (EED (1-441)-His protein; [6]) [nM] | IC50 [1, 7] [nM] | IC50 [2, 8] [nM] | further results
COc1cccc(F)c1CNc1ccc(-c2ccc(C(=O)N3CCCC3)cc2)c2nncn12 [Example 107, (4-(5-((2-fluoro-6-methoxy benzyl)amino)-[1,2,4]triazolo[4,3-a]pyridin-8-yl)phenyl)(pyrrolidin-1-yl) methanone] | 21.4 | 108 | 12.6 |  |  |  | 
CN(C)Cc1ccc(-c2ccc(NCc3ccccc3OC(F)F)n3cnnc23)cc1 [Example 19, N-(2-(difluoromethoxy)benzyl)-8-(4-((dimethylamino)methyl)phenyl)-[1,2,4]triazolo[4,3-a] pyridin-5-amine] | 169 | 587 | 363 |  |  |  | 
COc1ncccc1CNc1ccc(-c2ccc(CN(C)C)cc2)c2nncn12 [Example 374, 8-(4-((dimethylamino)methyl)phenyl)-N-((2-methoxypyridin-3-yl)methyl)-[1,2,4]triazolo[4,3-a] pyridin-5-amine] |  |  |  |  |  |  | IC50 (EED (1-441)-His protein; read-out: (a) IC50 EED Alphascreen binding Qualified): 58.3 nM; IC50 ([1]; read-out: (b) IC50 EED LC-MS Qualified): 144 nM; IC50 ([2]; G-401, read-out: (c) IC50 ELISA Qualified): 46.7 nM
COc1cccc(F)c1CNc1ccc(-c2cnn(C3CCOCC3)c2)c2nncn12 [Example 212, N-(2-fluoro-6-methoxybenzyl)-8-(1-(tetrahydro-2H-pyran-4-yl)-1H-pyrazol-4-yl)-[1,2,4]triazolo[4,3-a] pyridin-5-amine] |  |  |  | 18 | 75.6 | 22.6 | 
COc1cccc(F)c1CNc1ccc(-c2cnc(OC(C)C)nc2C)c2nncn12 [Example 332, N-(2-fluoro-6-methoxybenzyl)-8-(2-isopropoxy-4-methylpyrimidin-5-yl)-[1,2,4] triazolo[4,3-a]pyridin-5-amine] |  |  |  | 8.2 | 26.6 | 7.3 | 
COc1cccc(F)c1CNc1ccc(-c2ccc(N3CCN(C(C)C)CC3)nc2)c2nncn12 [Example 130, N-(2-fluoro-6-methoxybenzyl)-8-(6-(4-isopropylpiperazin-1-yl)pyridin-3-yl)-[1,2,4]triazolo[4,3-a]pyridin-5-amine] | 31.1 | 62.5 | 80.9 |  |  |  | 

Continued, in another order:

IC50 (EED (1-441)-His protein; [3]) [nM] | IC50 [1, 4] [nM] | IC50 [2, 5] [nM] | IC50 (EED (1-441)-His protein; [6]) [nM] | IC50 [1, 7] [nM] | IC50 [2, 8] [nM] | SMILES | further results
70.8 | 350 | 191 |  |  |  | COc1cccc(F)c1CNc1ccc(-c2cnc(N3CCN(C(C)C)CC3)c(C(F)(F)F)c2)c2nncn12 [Example 108, N-(2-fluoro-6-methoxybenzyl)-8-(6-(4-isopropylpiperazin-1-yl)-5-(trifluoromethyl)pyridin-3-yl)-[1,2,4]triazolo[4,3-a] pyridin-5-amine] | 
74.8 | 1100 | 112 |  |  |  | COc1ccccc1CNc1ccc(-c2cc(F)c(CN3CCCCC3)c(F)c2)c2nncn12 [Example 44, 8-(3,5-difluoro-4-(piperidin-1-ylmethyl)phenyl)-N-(2-methoxybenzyl)-[1,2,4] triazolo[4,3-a]pyridin-5-amine] | 
 |  |  | 26.1 | 71.6 | 29.8 | COc1cccc(F)c1CNc1ccc(-c2cc(Cl)cnc2C)c2nncn12 [Example 326, 8-(5-chloro-2-methylpyridin-3-yl)-N-(2-fluoro-6-methoxybenzyl)-[1,2,4]triazolo[4,3-a] pyridin-5-amine] | 
 |  |  | 30.9 | 41.8 | 15.5 | COc1cccc(F)c1CNc1ccc(-c2cc(C(F)F)ncc2C)c2nncn12 [Example 306, 8-(2-(difluoromethyl)-5-methylpyridin-4-yl)-N-(2-fluoro-6-methoxybenzyl)-[1,2,4]triazolo[4,3-a]pyridin-5-amine] | 
16.5 | 206 | 27.9 |  |  |  | COc1ccccc1CNc1ccc(-c2ccc(C(=O)N3CCCC3)cc2)c2nncn12 [Example 42, (4-(5-((2-methoxybenzyl)amino)-[1,2,4]triazolo[4,3-a]pyridin-8-yl)phenyl) (pyrrolidin-1-yl)methanone] | 
 |  |  | 8.9 | 60.1 | 4.8 | COc1cccc(F)c1CNc1ccc(-c2ccc(C(=O)N(C)C)nc2C)c2nncn12 [Example 269, 5-(5-((2-fluoro-6-methoxybenzyl)amino)-[1,2,4]triazolo[4,3-a]pyridin-8-yl)-N,N,6-trimethylpicolinamide] | 
